Assay results from patent US20100003289A1, “Controlled Release Complex Formulation For Oral Administration of Medicine For Diabetes and Method For The Preparation Thereof” (Hanmi Pharm, Co., Ltd., priority 2004, published 2010).

Assay: Stability of glimepiride in solution as function of pH, Test Example 5
Format: physicochemical
Design: Rate constant (K): unit not given beside the values
Conditions: for Log K / Rate constant (K) / T50% (time taken for 50% disintegration of the drug, 0.693/K): room temperature
Description: In order to examine the stability of glimepiride in a solution as function of pH changes, only the glimepiride rapid-release portion of the formulation of Example 13 was separated, and dissolved in each of the solutions listed in Table 17. Each of the resulting solutions was kept at room temperature and the glimepiride contents thereof were measured at predetermined times.

[1] = pH 1.2, 1st solution of disintegrating-test in Korea pharmacopoeia
[2] = pH 4.0, British pharmacopoeia buffer solution (1998)
[3] = pH 6.8, 2nd solution of disintegrating-test in Korea pharmacopoeia
[4] = pH 7.8, phosphate buffer solution (Amaryl release solution)

Log K [1]: 0.186
Rate constant (K) [1]: 1.534
T50% (time taken for 50% disintegration of the drug, 0.693/K) [1]: 0.45
Log K [2]: −0.472
Rate constant (K) [2]: 0.337
T50% (time taken for 50% disintegration of the drug, 0.693/K) [2]: 2.06
Log K [3]: −0.900
Rate constant (K) [3]: 0.126
T50% (time taken for 50% disintegration of the drug, 0.693/K) [3]: 5.50
Log K [4]: −1.187
Rate constant (K) [4]: 0.065
T50% (time taken for 50% disintegration of the drug, 0.693/K) [4]: 10.66
Log K (pH 10.0, Meglumin 1% solution): −2.721
Rate constant (K) (pH 10.0, Meglumin 1% solution): 0.002
T50% (time taken for 50% disintegration of the drug, 0.693/K) (pH 10.0, Meglumin 1% solution): 346.50
stability of glimepiride as function of the solution pH (solution containing meglumin, judged by lowest K value, FIG. 9): most stable
Structure (SMILES): CCC1=C(C)CN(C(=O)NCCc2ccc(S(=O)(=O)NC(=O)N[C@H]3CC[C@H](C)CC3)cc2)C1=O [glimepiride]
